Patent US20240270821A1, “GIP/GLP1/GCG TRI-RECEPTOR AGONISTS AND USES THEREOF” (priority 2023, published 2024)
Read-outs that look alike come from different tables or passages of the source. Starred links: 1 amine or outer side, 2 acyl side, 3 side chain; linkers in the order of their positions; H or OH if unused. Non-standard residues stand in square brackets, D forms with d. Residues, ends and D or L forms follow the SMILES beside them. Groups on a side chain read outwards from the residue. No end group written: not given here. *: point of attachment. C20 diacid = O=C(O)CCCCCCCCCCCCCCCCCCC(=O)*; C18 diacid = O=C(O)CCCCCCCCCCCCCCCCC(=O)*; αMePhe(2-F) = C[C@](N)(Cc1ccccc1F)C(=O)O; γGlu = O=C(O)[C@H](CCC(=O)[*:2])N[*:1]; αMe4Pal = C[C@](N)(Cc1ccncc1)C(=O)O; αMeY = C[C@](N)(Cc1ccc(O)cc1)C(=O)O; 4Pal = N[C@@H](Cc1ccncc1)C(=O)O; αMeL = CC(C)C[C@](C)(N)C(=O)O; αMeS = C[C@](N)(CO)C(=O)O; Orn = NCCC[C@H](N)C(=O)O; Dab = NCC[C@H](N)C(=O)O; Dap = NC[C@H](N)C(=O)O; AEEA = NCCOCCOCC(=O)O; Aib = CC(C)(N)C(=O)O

How the values were obtained:
Format in all cases: cell-based
human GcgR = human GcgR (Homo sapiens, UniProt P47871); test: Functional cAMP activity in the presence of 1% HSA; settings: read-out: cAMP Rel EC50, hGcgR
Sequence of human GcgR (P47871 26-477): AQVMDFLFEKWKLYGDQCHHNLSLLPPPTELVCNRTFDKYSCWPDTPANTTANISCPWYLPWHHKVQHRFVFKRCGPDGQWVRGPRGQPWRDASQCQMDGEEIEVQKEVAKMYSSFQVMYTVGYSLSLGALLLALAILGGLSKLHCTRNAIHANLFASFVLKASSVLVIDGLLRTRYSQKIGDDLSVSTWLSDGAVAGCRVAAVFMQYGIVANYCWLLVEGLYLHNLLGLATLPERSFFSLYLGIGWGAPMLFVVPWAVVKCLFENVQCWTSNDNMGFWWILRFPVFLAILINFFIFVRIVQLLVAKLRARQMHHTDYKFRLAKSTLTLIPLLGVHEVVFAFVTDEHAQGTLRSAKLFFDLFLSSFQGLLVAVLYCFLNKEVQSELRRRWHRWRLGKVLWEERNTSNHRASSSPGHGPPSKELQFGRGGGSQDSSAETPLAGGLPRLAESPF

hGLP-1R [1] = biological target: T1, hGLP-1R (Homo sapiens, UniProt P43220); test: Functional cAMP activation in the presence of 0.1% casein (no HSA); settings: read-out: Relative cAMP EC50, hGLP-1R;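 also: intracellular cAMP rise after 30 min at 37 °C read by HTRF, normalized between buffer only (0%) and maximal control ligand (100%), four-parameter variable-slope fit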
T1 sequence (P43220 24-463): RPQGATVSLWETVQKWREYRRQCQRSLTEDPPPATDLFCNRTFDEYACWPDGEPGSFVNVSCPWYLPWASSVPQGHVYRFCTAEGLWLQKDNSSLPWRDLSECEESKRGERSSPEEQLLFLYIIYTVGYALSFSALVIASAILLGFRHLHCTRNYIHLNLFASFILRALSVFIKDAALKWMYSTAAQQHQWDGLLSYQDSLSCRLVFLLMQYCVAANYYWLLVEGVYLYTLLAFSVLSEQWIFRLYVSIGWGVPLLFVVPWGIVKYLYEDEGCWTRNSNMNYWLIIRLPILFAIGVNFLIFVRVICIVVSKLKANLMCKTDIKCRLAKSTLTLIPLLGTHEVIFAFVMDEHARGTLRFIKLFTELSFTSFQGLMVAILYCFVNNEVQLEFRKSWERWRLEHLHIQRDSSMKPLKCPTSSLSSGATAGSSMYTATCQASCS

hGcgR = hGcgR (Homo sapiens, UniProt P47871); test: as above; settings: read-out: Relative cAMP EC50, hGcgR;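 also: intracellular cAMP rise after 30 min at 37 °C, read by HTRF against a cAMP standard curve, scaled from buffer only (0%) to maximal control ligand response (100%)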
Sequence of hGcgR (P47871 26-477): as the sequence (P47871 26-477) above

hGIPR [2] = biological target: T2, hGIPR (Homo sapiens, UniProt P48546); test: as above; settings: read-out: Relative cAMP EC50, hGIPR;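 also: intracellular cAMP rise after 30 min at 37 °C read by HTRF against a standard curve, scaled between buffer alone (0%) and top control ligand concentration (100%), four-parameter fit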
T2 sequence (P48546 22-466): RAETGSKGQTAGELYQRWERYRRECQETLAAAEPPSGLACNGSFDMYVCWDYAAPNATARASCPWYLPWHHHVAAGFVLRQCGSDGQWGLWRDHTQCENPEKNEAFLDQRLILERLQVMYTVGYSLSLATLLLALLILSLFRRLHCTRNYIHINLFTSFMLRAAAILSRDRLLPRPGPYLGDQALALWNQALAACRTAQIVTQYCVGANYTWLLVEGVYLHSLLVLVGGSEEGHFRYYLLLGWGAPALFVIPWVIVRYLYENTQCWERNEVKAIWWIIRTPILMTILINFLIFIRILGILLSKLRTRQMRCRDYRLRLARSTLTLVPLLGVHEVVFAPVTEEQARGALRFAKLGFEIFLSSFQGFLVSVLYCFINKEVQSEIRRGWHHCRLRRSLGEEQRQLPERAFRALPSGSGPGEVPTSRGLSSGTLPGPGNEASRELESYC

hGLP-1R [3] = biological target: T1, hGLP-1R; test: Functional cAMP activity in the presence of 1% HSA; settings: read-out: cAMP Rel EC50, hGLP-1R
hGIPR [4] = biological target: T2, hGIPR; test: Functional cAMP activity in the presence of 1% HSA; settings: read-out: cAMP Rel EC50, hGIPR
[5] = in the presence of 0.1% casein (no HSA), geometric mean
[6] = HEK-293 clonal cell line, in the presence of 1% HSA, geometric mean of relative EC50

| Molecule | EC50 (human GcgR) | EC50 (hGLP-1R [1]) | EC50 (hGcgR) | EC50 (hGIPR [2]) | EC50 (hGLP-1R [3]) | EC50 (hGIPR [4]) | EC50 (hGLP-1R [1]; [5]) | EC50 (hGcgR; [5]) | EC50 (hGIPR [2]; [5]) | EC50 (human GcgR; [6]) | EC50 (hGLP-1R [3]; [6]) | EC50 (hGIPR [4]; [6]) |
| --- | --- | --- | --- | --- | --- | --- | --- | --- | --- | --- | --- | --- |
| CC[C@H](C)[C@H](NC(=O)[C@H](CC(C)C)NC(=O)[C@](C)(Cc1ccc(O)cc1)NC(=O)[C@@H](CCC(=O)O)NC(=O)[C@@H](NC(=O)[C@H](Cc1ccccc1)NC(=O)[C@H](CCC(=O)O)NC(=O)C(C)(C)NC(=O)[C@H](C)NC(=O)[C@H](C)NC(=O)[C@H](CCCCNC(=O)COCCOCCNC(=O)CC[C@H](NC(=O)CCCCCCCCCCCCCCCCC(=O)O)C(=O)O)NC(=O)[C@H](CCCN)NC(=O)[C@H](CC(=O)O)NC(=O)[C@H](CC(C)C)NC(=O)[C@](C)(CC(C)C)NC(=O)[C@@H](NC(=O)[C@](C)(CO)NC(=O)[C@H](Cc1ccncc1)NC(=O)[C@H](CC(=O)O)NC(=O)[C@H](CO)NC(=O)[C@@H](NC(=O)[C@](C)(Cc1ccccc1F)NC(=O)[C@@H](NC(=O)CNC(=O)[C@H](CCC(N)=O)NC(=O)C(C)(C)NC(=O)[C@@H](N)Cc1ccc(O)cc1)[C@@H](C)O)[C@@H](C)O)[C@@H](C)CC)[C@@H](C)CC)C(=O)N[C@@H](CCC(=O)O)C(=O)NCC(=O)NCC(=O)N1CCC[C@H]1C(=O)N[C@@H](CO)C(=O)N[C@@H](CO)C(=O)NCC(=O)N[C@@H](C)C(=O)N1CCC[C@H]1C(=O)N1CCC[C@H]1C(=O)N1CCC[C@H]1C(=O)N[C@@H](CO)C(=O)NCC(=O)N[C@H](C(=O)NCC(=O)N[C@H](CCC(=O)O)C(N)=O)[C@@H](C)O [Example 723] | 179 nM | 0.255 nM | 1.82 nM | 0.0118 nM | 26.5 nM | 1.02 nM |  |  |  |  |  |  |
| H-Y[Aib]QGTFTSDYSI[αMeL]LDKIAAK([AEEA-AEEA-γGlu-C20 diacid])QFVEYLIAGGPSSGEPPPSEG-NH2 [Example 312] | 4070 nM |  |  |  | 589 nM | 97.7 nM | 2.66 nM | 7.5 nM | 0.504 nM |  |  |  |
| H-Y[Aib]QGT[αMePhe(2-F)]TSD[4Pal]SILLDKK([γGlu-γGlu-C18 diacid])AQ[Aib]AFIEYLEEGGPSSGAPPPSGEEE-NH2 [Example 611] | 627 nM | 1.63 nM | 6.8 nM | 0.126 nM | 146 nM | 7.35 nM |  |  |  |  |  |  |
| H-Y[Aib]QGTFTSDFS[Dab][αMeL]LDKK([AEEA-γGlu-C18 diacid])AQ[Aib]AFIEYLLE[Aib]GPSSGAPPPSGS-NH2 [Example 133] | 642 nM |  |  |  | 1180 nM | 23.1 nM | 3.6 nM | 1.64 nM | 0.15 nM |  |  |  |
| H-Y[Aib]QGTFTSD[4Pal]S[Orn][αMeL]LDKK([γGlu-γGlu-C18 diacid])AQ[αMe4Pal]AFIE[αMe4Pal]LIE[Aib]GPSSGEPPPSGSE-NH2 [Example 990] | 276 nM |  |  |  | 557 nM | 9.87 nM | 5.78 nM | 2.47 nM | 0.115 nM |  |  |  |
| H-Y[Aib]QGTFTSDFS[Orn][αMeL]LDKK([AEEA-γGlu-C20 diacid])AQ[Aib]AFIEYLLAGGPSSGAPPPSGD-NH2 [Example 81] | 1580 nM |  |  |  | 430 nM | 50.2 nM | 2.19 nM | 7.78 nM | 0.246 nM |  |  |  |
| Y[Aib]QGT[αMePhe(2-F)]TSD[4Pal][αMeS]I[αMeL]LD[Orn]K([AEEA-γGlu-C18 diacid])AQ[αMe4Pal]EFI[dE][αMeY]LIEGGPSSGEPPPEGTGE-NH2 [Example 763] | 222 nM | 0.302 nM | 1.57 nM | 0.00719 nM | 42.5 nM | 1.16 nM |  |  |  |  |  |  |
| H-Y[Aib]QGTFTSDFS[Orn][αMeL]LDKK([AEEA-AEEA-γGlu-C18 diacid])AQ[Aib]AFIEYLLE[Aib]GESSGAPPPSGT-NH2 [Example 180] | 1320 nM |  |  |  | 891 nM | 24 nM | 5.08 nM | 2.44 nM | 0.14 nM |  |  |  |
| H-Y[Aib]QGT[αMePhe(2-F)]TSD[4Pal]SILLDKK([γGlu-γGlu-C18 diacid])AQ[Aib]AFIEYLEEGGPSSGEPPPSGTGE-NH2 [Example 607] | 565 nM | 1.15 nM | 8.91 nM | 0.0879 nM | 139 nM | 6.63 nM |  |  |  |  |  |  |
| H-Y[Aib]QGT[αMePhe(2-F)]TSD[4Pal]SI[αMeL]LD[Orn]K([AEEA-γGlu-C18 diacid])AQ[αMe4Pal]EFI[dE][αMeY]LIEGGPSSGAPPPSGS-NH2 [Example 640] | 730 nM | 0.288 nM | 9.5 nM | 0.00696 nM | 27.8 nM | 0.591 nM |  |  |  |  |  |  |
| Y[Aib]QGTFTSDFSK[αMeL]LDKK([AEEA-γGlu-C20 diacid])AQ[Aib]AFIEYLLEGGPSSGEPPPTEG-NH2 [Example 36] | 1330 nM |  |  |  | 1360 nM | 170 nM | 3.57 nM | 4.32 nM | 0.482 nM |  |  |  |
| H-Y[Aib]QGTFTSDFS[Dap][αMeL]LDKK([γGlu-γGlu-C18 diacid])AQ[Aib]AFIEYLLE[Aib]GPSSGAPPPSGS-NH2 [Example 203] | 1160 nM |  |  |  | 532 nM | 19 nM | 4.72 nM | 6.92 nM | 0.125 nM |  |  |  |
| H-Y[Aib]QGTFTSDFSK[αMeL]LDKK([AEEA-γGlu-C20 diacid])AQ[Aib]AFIEWLIEGGPSSGAPPPSEG-NH2 [Example 40] | 2750 nM |  |  |  | 138 nM | 76.7 nM | 0.693 nM | 12.3 nM | 0.139 nM |  |  |  |
| H-Y[Aib]QGTFTSDFS[Orn][αMeL]LDKK([AEEA-γGlu-C18 diacid])AQ[Aib]AFIEYLLEGGESSGAPPPSGS-NH2 [Example 145] | 693 nM |  |  |  | 1480 nM | 108 nM | 4.26 nM | 3.14 nM | 0.539 nM |  |  |  |
| CC[C@H](C)[C@H](NC(=O)[C@H](Cc1ccccc1)NC(=O)[C@H](C)NC(=O)C(C)(C)NC(=O)[C@H](CCC(N)=O)NC(=O)[C@H](C)NC(=O)[C@H](CCCCNC(=O)CC[C@H](NC(=O)CC[C@H](NC(=O)CCCCCCCCCCCCCCCCC(=O)O)C(=O)O)C(=O)O)NC(=O)[C@H](CCCN)NC(=O)[C@H](CC(=O)O)NC(=O)[C@H](CC(C)C)NC(=O)[C@H](CC(C)C)NC(=O)[C@@H](NC(=O)[C@H](CO)NC(=O)[C@H](Cc1ccc(O)cc1)NC(=O)[C@H](CC(=O)O)NC(=O)[C@H](CO)NC(=O)[C@@H](NC(=O)[C@](C)(Cc1ccccc1F)NC(=O)[C@@H](NC(=O)CNC(=O)[C@H](CCC(N)=O)NC(=O)C(C)(C)NC(=O)[C@@H](N)Cc1ccc(O)cc1)[C@@H](C)O)[C@@H](C)O)[C@@H](C)CC)C(=O)N[C@@H](CCC(=O)O)C(=O)N[C@@H](Cc1ccc(O)cc1)C(=O)N[C@@H](CC(C)C)C(=O)N[C@@H](CCC(=O)O)C(=O)N[C@@H](CCC(=O)O)C(=O)NCC(=O)NCC(=O)N1CCC[C@H]1C(=O)N[C@@H](CO)C(=O)N[C@@H](CO)C(=O)NCC(=O)N[C@@H](C)C(=O)N1CCC[C@H]1C(=O)N1CCC[C@H]1C(=O)N1CCC[C@H]1C(=O)N[C@@H](CO)C(N)=O [Example 414] (H-Y[Aib]QGT[αMePhe(2-F)]TSDYSILLD[Orn]K([γGlu-γGlu-C18 diacid])AQ[Aib]AFIEYLEEGGPSSGAPPPS-NH2) | 487 nM | 0.176 nM | 4.56 nM | 0.0303 nM | 32.8 nM | 14.9 nM |  |  |  |  |  |  |
| Y[Aib]QGT[αMePhe(2-F)]TSD[4Pal]SI[αMeL]LD[Orn]K([AEEA-AEEA-γGlu-C18 diacid])AQ[αMe4Pal]EFI[dE][αMeY]LLEGGPSSGAPPPSGE-NH2 [Example 613] | 1410 nM | 0.698 nM | 20.4 nM | 0.00925 nM | 81.6 nM | 0.791 nM |  |  |  |  |  |  |
| H-Y[Aib]QGT[αMePhe(2-F)]TSD[4Pal]SI[αMeL]LD[Orn]K([γGlu-γGlu-C18 diacid])AQ[αMe4Pal][Orn]FI[dE][αMeY]LIEGGPSSGEPPPEGE-NH2 [Example 683] | 137 nM | 0.214 nM | 1.57 nM | 0.00798 nM | 14.3 nM | 0.492 nM |  |  |  |  |  |  |
| H-Y[Aib]QGTFTSDFS[Orn][αMeL]LD[Orn]K([γGlu-γGlu-C18 diacid])AQ[Aib]AFIEYLLEGGPSSGAPPPGGSEE-NH2 [Example 1048] |  |  |  |  |  |  | 6.23 nM | 6.9 nM | 0.356 nM | 1930 nM | 1900 nM | 108 nM |
| H-Y[Aib]QGTFTSD[4Pal]SQ[αMeL]LDKK([AEEA-γGlu-γGlu-C18 diacid])AQ[αMe4Pal]AFIEYLIE[Aib]GPSSGAPPPSGS-NH2 [Example 860] | 565 nM |  |  |  | 414 nM | 19.2 nM | 3.95 nM | 11 nM | 0.202 nM |  |  |  |
